Experimental data: patent US20120220562A1, “Anti-Viral Compounds” (ABBOTT LABAORATORIES, priority 2011, published 2012)

The compounds below were run on HCV 1b-Con1 replicon (assay: HCV 1b-Con1 replicon assay in the presence of 5% FBS). Conditions: Hepatitis C virus.
Assay type: cell-based

COC(=O)N[C@H](C(=O)N1CCC[C@H]1c1nc2cc([C@H]3CC[C@H](c4ccc5[nH]c([C@@H]6CCCN6C(=O)[C@@H](NC(=O)OC)C(C)C)nc5c4)N3c3ccc(-c4ccccn4)cc3)ccc2[nH]1)C(C)C [Example 3.1, methyl {(2S)-1-[(2S)-2-(5-{(2R,5R)-5-{2-[(2S)-1-{(2S)-2-[(methoxycarbonyl)amino]-3-methylbutanoyl}pyrrolidin-2-yl]-1H-benzimidazol-5-yl}-1-[4-(pyridin-2-yl)phenyl]pyrrolidin-2-yl}-1H-benzimidazol-2-yl)pyrrolidin-1-yl]-3-methyl-1-oxobutan-2-yl}carbamate] and COC(=O)N[C@H](C(=O)N1CCC[C@H]1c1nc2cc([C@H]3CC[C@H](c4ccc5[nH]c([C@@H]6CCCN6C(=O)[C@@H](NC(=O)OC)C(C)C)nc5c4)N3c3ccc(-c4ncco4)cc3)ccc2[nH]1)C(C)C [Example 2.1, methyl {(2S)-1-[(2S)-2-(5-{(2R,5R)-5-{2-[(2S)-1-{(2S)-2-[(methoxycarbonyl)amino]-3-methylbutanoyl}pyrrolidin-2-yl]-1H-benzimidazol-5-yl}-1-[4-(1,3-oxazol-2-yl)phenyl]pyrrolidin-2-yl}-1H-benzimidazol-2-yl)pyrrolidin-1-yl]-3-methyl-1-oxobutan-2-yl}carbamate] cannot be ordered by EC50: less than 0.1 nM for the first, less than 0.1 nM for the second.

COC(=O)N[C@H](C(=O)N1[C@H](c2nc3cc([C@H]4CC[C@H](c5ccc6[nH]c([C@@H]7C[C@@H]8CCC[C@@H]8N7C(=O)[C@@H](NC(=O)OC)[C@@H](C)OC)nc6c5)N4c4cc(F)c(N5CCCCC5)c(F)c4)ccc3[nH]2)C[C@@H]2CCC[C@@H]21)C(C)C [Example 10.2, methyl {(2S,3R)-1-[(2S,3aS,6aS)-2-{5-[(2R,5R)-1-[3,5-difluoro-4-(piperidin-1-yl)phenyl]-5-{2-[(2S,3aS,6aS)-1-{(2S)-2-[(methoxycarbonyl)amino]-3-methylbutanoyl}octahydrocyclopenta[b]pyrrol-2-yl]-1H-benzimidazol-5-yl}pyrrolidin-2-yl]-1H-benzimidazol-2-yl}hexahydrocyclopenta[b]pyrrol-1(2H)-yl]-3-methoxy-1-oxobutan-2-yl}carbamate] and COC(=O)N[C@H](C(=O)N1[C@H](c2nc3cc([C@H]4CC[C@H](c5cc6nc([C@@H]7C[C@@H]8CCC[C@@H]8N7C(=O)[C@@H](NC(=O)OC)C(C)C)[nH]c6cc5F)N4c4cc(F)c(N5CCCCC5)c(F)c4)c(F)cc3[nH]2)C[C@@H]2CCC[C@@H]21)C(C)C [Example 3.37, methyl {(2S)-1-[(2S,3aS,6aS)-2-{5-[(2R,5R)-1-[3,5-difluoro-4-(piperidin-1-yl)phenyl]-5-{6-fluoro-2-[(2S,3aS,6aS)-1-{(2S)-2-[(methoxycarbonyl)amino]-3-methylbutanoyl}octahydrocyclopenta[b]pyrrol-2-yl]-1H-benzimidazol-5-yl}pyrrolidin-2-yl]-6-fluoro-1H-benzimidazol-2-yl}hexahydrocyclopenta[b]pyrrol-1(2H)-yl]-3-methyl-1-oxobutan-2-yl}carbamate] cannot be ordered by EC50: less than 0.1 nM for the first, less than 0.1 nM for the second.

COC(=O)N[C@H](C(=O)N1CCC[C@H]1c1nc2cc([C@H]3CC[C@H](c4cc5nc([C@@H]6CCCN6C(=O)[C@@H](NC(=O)OC)C(C)C)[nH]c5cc4F)N3c3cc(F)c(N4CCC(C(C)(C)C)CC4)c(F)c3)c(F)cc2[nH]1)C(C)C [Example 4.27, methyl {(2S)-1-[(2S)-2-{5-[(2R,5R)-1-[4-(4-tert-butylpiperidin-1-yl)-3,5-difluorophenyl]-5-{6-fluoro-2-[(2S)-1-{(2S)-2-[(methoxycarbonyl)amino]-3-methylbutanoyl}pyrrolidin-2-yl]-1H-benzimidazol-5-yl}pyrrolidin-2-yl]-6-fluoro-1H-benzimidazol-2-yl}pyrrolidin-1-yl]-3-methyl-1-oxobutan-2-yl}carbamate] and COC(=O)N[C@H](C(=O)N1CCC[C@H]1c1nc2cc([C@@H]3CC[C@@H](c4cc5nc([C@@H]6CCCN6C(=O)[C@@H](NC(=O)OC)C(C)C)[nH]c5cc4F)N3c3cc(F)c(N4CCN(c5c(F)cccc5F)CC4)c(F)c3)c(F)cc2[nH]1)C(C)C [Example 3.50, methyl {(2S)-1-[(2S)-2-{5-[(2S,5S)-1-{4-[4-(2,6-difluorophenyl)piperazin-1-yl]-3,5-difluorophenyl}-5-{6-fluoro-2-[(2S)-1-{(2S)-2-[(methoxycarbonyl)amino]-3-methylbutanoyl}pyrrolidin-2-yl]-1H-benzimidazol-5-yl}pyrrolidin-2-yl]-6-fluoro-1H-benzimidazol-2-yl}pyrrolidin-1-yl]-3-methyl-1-oxobutan-2-yl}carbamate] cannot be ordered by EC50: less than 0.1 nM for the first, less than 0.1 nM for the second.

Compared with COC(=O)N[C@H](C(=O)N1CCC[C@H]1c1ncc(-c2cccc(C3(c4cccc(-c5cnc([C@@H]6CCCN6C(=O)[C@@H](NC(=O)OC)C(C)C)[nH]5)c4)CN(c4ccc(C(C)(C)C)cc4)C3)c2)[nH]1)C(C)C [Example 12.1, methyl {(2S)-1-[(2S)-2-(5-{3-[1-(4-tert-butylphenyl)-3-(3-{2-[(2S)-1-{(2S)-2-[(methoxycarbonyl)amino]-3-methylbutanoyl}pyrrolidin-2-yl]-1H-imidazol-5-yl}phenyl)azetidin-3-yl]phenyl}-1H-imidazol-2-yl)pyrrolidin-1-yl]-3-methyl-1-oxobutan-2-yl}carbamate], COC(=O)N[C@H](C(=O)N1CCC[C@H]1c1nc2ccc([C@H]3CC[C@H](c4ccc5nc([C@@H]6CCCN6C(=O)[C@@H](NC(=O)OC)C(C)C)[nH]c5c4)N3c3ccc(N4CCC(F)(c5ccccc5)CC4)cc3)cc2[nH]1)C(C)C [Example 4.36, methyl {(2S)-1-[(2S)-2-{6-[(2R,5R)-1-[4-(4-fluoro-4-phenylpiperidin-1-yl)phenyl]-5-{2-[(2S)-1-{(2S)-2-[(methoxycarbonyl)amino]-3-methylbutanoyl}pyrrolidin-2-yl]-1H-benzimidazol-6-yl}pyrrolidin-2-yl]-1H-benzimidazol-2-yl}pyrrolidin-1-yl]-3-methyl-1-oxobutan-2-yl}carbamate] is lower in EC50: 1 to 10 nM for the first, less than 0.1 nM for the second. The second is the more potent here.

COC(=O)N[C@H](C(=O)N1CCC[C@H]1c1nc2cc([C@H]3CC[C@H](c4ccc5[nH]c([C@@H]6CCCN6C(=O)[C@@H](NC(=O)OC)C6CCOCC6)nc5c4)N3c3ccc(C(C)(C)C)cc3)ccc2[nH]1)C1CCOCC1 [Example 3.6, dimethyl ([(2R,5R)-1-(4-tert-butylphenyl)pyrrolidine-2,5-diyl]bis{1H-benzimidazole-5,2-diyl(2S)pyrrolidine-2,1-diyl[(1S)-2-oxo-1-(tetrahydro-2H-pyran-4-yl)ethane-2,1-diyl]})biscarbamate] and COC(=O)N[C@H](C(=O)N1CCC[C@H]1c1nc2cc([C@H]3CC[C@H](c4ccc5[nH]c([C@@H]6CCCN6C(=O)[C@@H](NC(=O)OC)C(C)C)nc5c4)N3c3cc(F)c(N4Cc5ccccc5C4)c(F)c3)ccc2[nH]1)C(C)C [Example 5.13, methyl {(2S)-1-[(2S)-2-{5-[(2R,5R)-1-[4-(1,3-dihydro-2H-isoindol-2-yl)-3,5-difluorophenyl]-5-{2-[(2S)-1-{(2S)-2-[(methoxycarbonyl)amino]-3-methylbutanoyl}pyrrolidin-2-yl]-1H-benzimidazol-5-yl}pyrrolidin-2-yl]-1H-benzimidazol-2-yl}pyrrolidin-1-yl]-3-methyl-1-oxobutan-2-yl}carbamate] cannot be ordered by EC50: less than 0.1 nM for the first, less than 0.1 nM for the second.

COC(=O)N[C@H](C(=O)N1CCC[C@H]1c1nc2cc([C@H]3CC[C@H](c4ccc5[nH]c([C@@H]6CCCN6C(=O)[C@@H](NC(=O)OC)C(C)C)nc5c4)N3c3cc(F)c(N4CCCCC4)c(F)c3F)ccc2[nH]1)C(C)C [Example 4.7, methyl {(2S)-1-[(2S)-2-(5-{(2R,5R)-5-{2-[(2S)-1-{(2S)-2-[(methoxycarbonyl)amino]-3-methylbutanoyl}pyrrolidin-2-yl]-1H-benzimidazol-5-yl}-1-[2,3,5-trifluoro-4-(piperidin-1-yl)phenyl]pyrrolidin-2-yl}-1H-benzimidazol-2-yl)pyrrolidin-1-yl]-3-methyl-1-oxobutan-2-yl}carbamate] and COC(=O)N[C@H](C(=O)N1CCC[C@H]1c1nc2ccc([C@H]3CC[C@H](c4ccc5nc([C@@H]6CCCN6C(=O)[C@@H](NC(=O)OC)C(C)C)[nH]c5c4)N3c3cc(F)c(N4CCC(c5ccc([Si](C)(C)C)cc5)CC4)c(F)c3)cc2[nH]1)C(C)C [Example 2.14, methyl {(2S)-1-[(2S)-2-{5-[(2R,5R)-1-(3,5-difluoro-4-{4-[4-(trimethylsilyl)phenyl]piperidin-1-yl}phenyl)-5-{2-[(2S)-1-{(2S)-2-[(methoxycarbonyl)amino]-3-methylbutanoyl}pyrrolidin-2-yl]-1H-benzimidazol-5-yl}pyrrolidin-2-yl]-1H-benzimidazol-2-yl}pyrrolidin-1-yl]-3-methyl-1-oxobutan-2-yl}carbamate] cannot be ordered by EC50: less than 0.1 nM for the first, less than 0.1 nM for the second.

First: CC(C)(C)OC(=O)NCC(=O)N1CCC[C@H]1c1nc2cc([C@@H]3CC[C@@H](c4ccc5[nH]c([C@@H]6CCCN6C(=O)CNC(=O)OC(C)(C)C)nc5c4)N3c3ccc(N4CCCCC4)c(F)c3)ccc2[nH]1 [Example 3.14, tert-butyl {2-[(2S)-2-(5-{(2S,5S)-5-{2-[(2S)-1-{[(tert-butoxycarbonyl)amino]acetyl}pyrrolidin-2-yl]-1H-benzimidazol-5-yl}-[3-fluoro-4-(piperidin-1-yl)phenyl]pyrrolidin-2-yl}-1H-benzimidazol-2-yl)pyrrolidin-1-yl]-2-oxoethyl}carbamate]
Second: COC(=O)N[C@H](C(=O)N1CCC[C@H]1c1nc2cc([C@H]3CC[C@H](c4cc5nc([C@@H]6CCCN6C(=O)[C@@H](NC(=O)OC)[C@@H](C)OC)[nH]c5cc4F)N3c3cc(F)c(N4CCCCC4)c(F)c3)c(F)cc2[nH]1)[C@@H](C)OC [Example 3.36, methyl {(2S,3R)-1-[(2S)-2-{5-[(2R,5R)-1-[3,5-difluoro-4-(piperidin-1-yl)phenyl]-5-(6-fluoro-2-{(2S)-1-[N-(methoxycarbonyl)-O-methyl-L-threonyl]pyrrolidin-2-yl}-1H-benzimidazol-5-yl)pyrrolidin-2-yl]-6-fluoro-1H-benzimidazol-2-yl}pyrrolidin-1-yl]-3-methoxy-1-oxobutan-2-yl}carbamate]
The EC50 of the first is higher: greater than 10 nM for the first, less than 0.1 nM for the second.
